Measurements taken from US5877210A, “Phosphotyrosine phosphatase inhibitors or phosphotyrosine kinase activators for controlling cellular proliferation” (priority 1995, dated 1999).
Where “and” joins values, the source holds several entries; their conditions need not be identical. Equal values may be shown once. Entries after “also recorded” stand apart in the source; their conditions may differ. Read-outs that look alike come from different tables or passages of the source.

Key:
HL-60 cells = assay: Anti-phosphotyrosine immunoblot; type: cell-based, human
[1] = system: mixed lymphocyte response cultures dependent on CD28 costimulation; assay: Mixed lymphocyte response cultures; type: cell-based; settings: 0.5 to 5 μM BMLOV
Protocol: Mixed lymphocyte response cultures that are dependent on CD28 costimulation were inhibited by over 50% by 0.5 to 5 μM BMLOV (FIG. 8).

Fyn = assay: Src-family kinase activity from treated Ramos cells; type: cell-based, human; settings: Ramos cells treated with BMLOV for 15 hours
Protocol: (§1) Treatment of Ramos cells with BMLOV for 15 hours inhibited the activity of the Src kinases Lyn and Fyn from the cells by approximately 50%.

Lyn = assay: as above; type: cell-based, human; settings: Ramos cells treated with BMLOV for 15 hours
Protocol: as §1

[2] = Tolerability of BMLOV in mice; type: in vivo
Ramos B cells [3] = assay: Viability by propidium iodide staining and flow cytometry; type: cell-based, human; settings: 25 μM BMLOV, 4 days (FIG. 15B) or 5 d (FIG. 30)
Source text: (§2) The extent to which the T cells were being killed by BMLOV treatment relative to the Ramos B cells was therefore examined. […] The percentage of cells in each quadrant is indicated. The lower right quadrant contains the viable cells.

PLCγ2 = PLCγ2 tyrosine phosphorylation in Ramos B cells; type: cell-based, human; settings: 16 h, dose-dependent, no antigen receptor stimulation
Protocol: Syk is essential for the tyrosine phosphorylation of PLCγ2 that leads to Ca^2+ signaling in B cells following antigen receptor stimulation (M. Takata et al., EMBO J. 13:1341-1349 (1994)). […] In the experiments shown in FIG. 24, Ramos B cells were treated 16 h with the indicated concentrations of BMLOV and then stimulated for 2 min with α-μ. Antibody binding in immunoblots was detected by ECL. […] The extent of tyrosine phosphorylation of PLCγ2 induced by BMLOV was substantially more than that observed following a maximal sIgM stimulation, and no additional tyrosine phosphorylation of PLCγ2 could be induced by sIgM stimulation of BMLOV treated cells.

T cells = assay: Anti-phosphotyrosine immunoblot of T cell lysates, basal and anti-CD3 stimulated; type: cell-based; settings: 16 h, even at 50 μM BMLOV
Protocol: In the experiments shown in FIG. 25, human PHA-induced T cell blasts were treated overnight with the indicated concentrations of BMLOV. In Panel A, the baseline level of intracellular free Ca^2+ ([Ca^2+ ]i) was established for 1 min, and then the cells were treated with biotinylated anti-CD3 mAb (G19-4). After 5 min avidin was added (gap in the trace) to cross-link the antibody. In Panel B, assays were performed as in Panel A, but in the presence of 5 mM EGTA. […] In the experiments shown in FIG. 26, cells were treated 16 h with BMLOV and then stimulated with anti-CD3 mAb G19-4 for 5 min. Cells were then washed and resuspended in fresh media at equal concentrations of BMLOV at 37° C. Cells were then harvested and lysed at times following the initiation of CD3 stimulation as indicated. Antibody binding in immunoblots was detected by ECL.

Ramos B cells [4] = assay: Confocal laser scanning microscopy; type: cell-based, human; settings: 25 μm BMLOV, 48 h
Protocol: Cells were fixed with 3.7% formaldehyde in PBS and permeabilized by treatment with 0.1% saponin. […] The cells were then washed three times in staining buffer, and stained with fluorescein-labeled goat anti-rabbit antibody (Molecular Probes). After washing three times in staining buffer, cells were stained for DNA with 2 μg/ml propidium iodide. A Leica GmbH confocal laser scanning microscope (CLSM) (Leica Laser Technic, Heidelberg, Germany) equipped with a krypton/argon laser (Omnichrome, Chino, Calif.), 2 double dichroic beam splitters with λs1 /λs2 of 488/647 and 488/568 nm, 1 neutral density beam splitter (Lys Optics, Denmark), the Leica CLSM software accessories, and the Leica true color display graphics package was used to produce the confocal images.
In addition to DNA fragmentation, apoptotic lymphocytes display condensation of chromatin, loss of DNA and fragmentation of nuclei that can be detected by confocal laser scanning microscopy (CLSM) of propidium iodide stained cells (R. Sgonc & G. Wick, Int. Arch. Allergy Immunol. 105:327-332 (1994)). Therefore, CLSM was used to examine Ramos cells stained for DNA with propidium iodide and stained for phosphotyrosine (FIG. 29). In the experiments shown in FIG. 29, Ramos B cells were fixed, permeabilized and stained with propidium iodide for DNA (red) and with anti-phosphotyrosine antibodies (green) as described above. […]

[5] = system: normal peripheral blood T cells
Protocol: IL-2Rα expression was analyzed by flow cytometry after staining the cells with fluorescein-labeled anti-CD25. Cells not receiving any treatment are shown by the shaded profile, (- - -) 25 μM BMLOV only; (-) G19-4 only; (. . . ) G19-4 plus BMLOV. In Panel A, no IL-2 was added; in Panel B, incubations were performed with 1 ng/ml IL-2.

Jurkat = type: cell-based, human
Source text: as §2

[6] = system: i.p. implanted P388 murine leukemia; assay: In vivo antitumor test, P388
[7] = peripheral blood t cells, 24 h, 25 µM

Structure (SMILES) | tyrosine phosphorylation response (HL-60 cells) | inhibition of mixed lymphocyte response [1] | inhibition of kinase activity (Fyn) | inhibition of kinase activity (Lyn) | tolerability ([2]; 1.6 mM BMLOV in drinking water continuously for 10 days) | tolerability ([2]; intraperitoneal doses up to 1 mg and oral doses up to 1.6 mg) | killing by BMLOV, in words (Ramos B cells [3]) | tyrosine phosphorylation of PLCγ2 (PLCγ2) | basal or T cell receptor induced cellular tyrosine phosphorylation (T cells) | nuclear morphology by CLSM (Ramos B cells [4]) | IL-2Rα expression without anti-CD3 stimulation ([5]; BMLOV alone or in combination with IL-2) | enhancement of IL-2Rα expression over anti-CD3 and IL-2 [5, 7] [fold] | increase of IL-2Rα expression over anti-CD3 stimulation alone [5, 7] [fold] | cells killed (Jurkat; Jurkat, 10 μM pV(phen), three days) | cells killed (Jurkat; human, jurkat cells, 48 h, 10 µM) [%] | Max. % T/C ([6]; Expt. 8457, 8 mg/kg/inj (MTD reached), d.1, ip, 8 mg/kg) | dose considered to be a MTD ([6]; daily i.p. injections days 1 to 5, Expt. 8459) [mg/kg per injection] | excessively toxic, i.e. lethal, dose ([6]; single i.p. doses, Expt. 8457)
Cc1occc(=O)c1[O-].Cc1occc(=O)c1[O-].[O]=[V+2] [BMLOV, Bis(maltolato)oxovanadium (IV)] | showed a tyrosine phosphorylation response; also recorded: strong tyrosine phosphorylation was observed | over 50% | approximately 50% | approximately 50% | no overt ill effects | without ill effects except for some temporary lethargy | substantially more sensitive to killing; also recorded: completely killed | strongly induced the tyrosine phosphorylation of PLCγ2 | little effect on basal or T cell receptor induced cellular tyrosine phosphorylation | extensive loss of DNA, condensation of chromatin | did not induce IL-2Rα expression | 3 | 1.7 |  |  |  |  | 
[Na+].[O]=[V-]12([O][O]1)[O][O]2.c1cnc2c(c1)ccc1cccnc12 [pV(phen), sodium (1,10-phenanthroline) oxodiperoxovanadium (V)] |  |  |  |  |  |  |  |  |  |  |  |  |  | all the cells | 98 | < 125% and 105% | 12 | greater than or equal to 32 mg/kg
